Results published in a melting point compilation (Tetko et al.; mined from patent text by program, amines drawn as free bases though some values may be those of a salt).

SMILES | melting point [°C]
O=[N+]([O-])c1ccc(-n2ncnc2-c2cnccn2)cc1 | 188 to 189
CCN(c1ccc(Cl)cc1C(=O)O)S(=O)(=O)c1ccc(C)cc1 | 163 to 165
COC(=O)[C@H](CSCc1ccccc1)NC(=O)Nc1n[nH]c(=S)s1 | 169 to 172
COC(=O)c1cccc(NC(=S)Nc2cc(C(=O)Nc3ccccc3)ccc2OC)c1 | 178 to 180
CCCC(O)P(=O)(O)OCCCN (centres undefined) | 188
Cc1c(O)cc(N)cc1C(=O)O | > 250
NS(=O)(=O)Oc1cccc(Cl)c1 | 82 to 83
CCC(=C1SCN(C)CS1)c1ccc(Oc2ccccc2)cc1 | 96 to 96.5
O=C1CC2c3cc(F)ccc3CCN2C2CCCCC12 (centres undefined) | 130 to 136
CN1CC2CC1CN2c1cncc(Cl)n1 (centres undefined) | 125 to 126
CSc1sc(-c2cccnc2)c2c1C(=O)C(=CO)C(C)(C)C2 | 154 to 156
O=C(Nc1ccc(Oc2ccccc2)cc1)N1CCN(c2nnc(Cc3ccccc3)c3ccccc23)CC1 | 100 to 101
O=C(O)CC1(CNC(=O)OC(OC(=O)c2ccccc2)c2ccccc2)CCCCC1 (centres undefined) | 75.5 to 76
COc1cc2c(c(Cl)c1Cl)C(=O)C(CCCl)=C2 | 103 to 105
CC(=NOCCOc1ccc(CC2SC(=O)NC2=O)cc1)c1ccc(O)nc1 (centres undefined) | 240 to 242
CCn1ccc(=O)c2cnc(-c3ccncc3)nc21 | 200 to 202
CCOC(=O)N1c2cc(OC)c(OC)cc2C(=O)C(=CNC)C1C (centres undefined) | 154 to 156
CON(C)Cc1nc2c(N)nc3ccccc3c2n1CC1(O)CCC1 | 219 to 221
CNc1nc(C)c(C)cc1NC(=O)N1CCN(c2cc(C)cc(C)c2)CC1 | 160 to 162
Cc1cc(=O)oc2c(C)c(O)c([N+](=O)[O-])cc12 | 230 to 232
CCCCC1OC(=O)c2cc(C#N)ccc21 (centres undefined) | 85 to 86
COC(=O)c1cc(-c2ncco2)ccc1-c1ccccc1S(=O)(=O)Nc1onc(C)c1C | 106 to 112
O=C(Cc1ccc([N+](=O)[O-])cc1)c1c(O)c2cccnc2n(-c2ccccc2)c1=O | 223 to 227
O=C1NC(=O)c2c1c(-c1ccccc1Cl)cc1c2c(Cl)c(CO)n1CCCO | 218 to 219
COC(=O)c1ccc(-c2ccc3cc(OCc4ccccc4)c(C45CC6CC(CC(C6)C4)C5)cc3c2)cc1 | 170 to 173
CCOC(=O)C(=O)c1ccc(OCCCCCCc2cccc(OCc3ccccc3)c2OCc2ccccc2)cc1 | 39 to 42

SMILES | melting point [°C]
CCOC(=O)C(=CNc1cc(=O)c2ccccc2o1)C(=O)OCC | 138 to 140
CC(C(N)=O)c1ccc2c(=O)c3ccccc3ccc2c1 (centres undefined) | 158 to 159
O=c1c2ccccc2[nH]c2c(OCCCCN(CCCl)CCCl)cccc12 | 119
COc1cc(NC(=O)OC(C)(C)C)ccc1OCCCN1CCN(c2ccccc2)CC1 | 125 to 126
CCN1CCC(=O)N(c2c(C)cccc2Cl)C1=S | 141 to 144
CC12CCCC1C1CC=C3CC(O)CC(O)C3(C)C1CC2 (centres undefined) | 182 to 183
O=C(O)c1ccc(F)cc1NC(=O)C(F)(F)F | 166 to 168
CCSCC(=O)c1cc(C(C)(C)C)c(O)c(C(C)(C)C)c1 | 133 to 134
CC1(c2nnn[nH]2)CC(Cl)(I)C=CC1N (centres undefined) | 205 to 208
N#Cc1ccc2c(c1)C(c1ncnc3c1cnn3C1CCCC1)C(=O)N2 (centres undefined) | > 300
O=C(C=Cc1ccc(F)c(F)c1)c1ccccc1O | 131 to 133
O=C(NC(=O)c1ccc(OCCn2ccnc2)cc1)c1ccccc1 | 152 to 154
CN1C(=O)C(C)(c2ccc(O)cc2)Sc2ccccc21 (centres undefined) | 158 to 160
C#CCC#CCON1C(=O)c2ccccc2C1=O | 134 to 135
N#Cc1cnc2sc(Br)cc2c1Cl | 158 to 166
CCNC1C=CC=C(Oc2ccc(F)cc2)C1(Cl)[N+](=O)[O-] (centres undefined) | 69 to 70
Brc1ccc2c3c(cccc13)C(NCCCCCCCCCCn1ccnc1)=N2 | 115 to 116
CCCc1nc2c(N)nc3cc(Br)ccc3c2n1CCCON=C(C)C | 182 to 183
FC(F)(F)c1ccc(/C=C/c2nc(COc3ccc(CCCCn4ccnn4)cc3)co2)cc1 | 160 to 161
C=CCS(=O)(=O)c1ncc(Cl)cn1 | 84
CCOC(=O)[C@H](Cc1ccc(-c2c(OC)cc(CO)cc2OC)cc1)NC(=O)OC(C)(C)C | 142 to 143
CCCCC(CC)COc1ccc2c(-c3ccc(C=O)cc3)c3cc(OCC(CC)CCCC)ccc3c(-c3ccc(C=O)cc3)c2c1 (centres undefined) | 125 to 127
CC(C)(CO[N+](=O)[O-])C(=O)N1C(C(=O)O)CSC1c1ccccc1 (centres undefined) | 35 to 38
COc1cc(C(=O)N2CCCCc3cc(Cl)ccc32)ccc1NC(=O)N(C)C | 230 to 232
CCOC(=O)C1CCc2[nH]c3ccc(OC(F)(F)F)cc3c2C1 (centres undefined) | 131 to 132
Cc1cnc2ccnn2c1-c1cccc(C(F)(F)F)c1 | 168 to 169

SMILES | melting point [°C]
COc1ccc2sc(Cc3ccc(Cl)cc3)nc2c1 | 83 to 85
O=C1C(=O)N(Cc2ccccc2F)c2ccc(S(=O)(=O)N3CC[C@H]3COc3ccccc3)cc21 | 147 to 148
O=C(O)c1cc(OCc2ccccc2)c(OCc2ccccc2)cn1 | 204
Cc1cc(C)cc(C(=O)N2CC[C@H](NCc3ccnc4ccccc34)C[C@H]2Cc2ccc(Cl)c(Cl)c2)c1 (relative stereo) | 121 to 124
CC(C)NC(=O)N1N=C(c2ccc([N+](=O)[O-])cc2)c2cc(Cl)ccc2CC1C (centres undefined) | 172 to 174
CCC(CC)COc1c(C)nc(N)nc1N | 142 to 143
CC(=O)N(O)Cc1ccc(OCc2ccccc2)cc1 | 119 to 120
O=C1CN2C(=O)N(c3cc(Cl)cc(Cl)c3)C(=O)C2(Cc2ccc(Br)cc2)C1 (centres undefined) | 85.4
CCOC(=O)C(=O)c1ccc(OCCCOc2ccc(C(C)=O)c(O)c2)cc1 | 63 to 65
CC(C)=CCCN1c2ccccc2CN1[N+](=O)[O-] | 51 to 52
CN1CCn2nc(Nc3cc(Cl)nn(COCC[Si](C)(C)C)c3=O)cc2C1 | 68 to 69
Cc1cc(C)cc(NC(=O)Cc2ccc(OC3(C(=O)O)CCOCC3)cc2)c1 | 186 to 188
CCCOc1ccccc1-c1nc2nc(N)ncc2c(=O)[nH]1 | 261 to 262
Cc1ccc(-n2nc(Sc3ccc(Cl)cc3)c(C)c(C#N)c2=O)cc1 | 190 to 192
Cn1cc(C(N)=O)c(=O)c2ccc(Cl)cc21 | > 240
Cc1nc(N2CCN(Cc3ccc(C(F)(F)F)cc3)C2=O)sc1C(=O)O | 195 to 197
CC(Cc1c[nH]c2ccccc12)(NC(=O)OC1C2CC3CC(C2)CC1C3)C(=O)c1ccccc1CCCC(=O)O (centres undefined) | 123 to 137
C=CCC12CCC(=O)C1(C)CCC1c3ccc(OC)cc3CCC12 (centres undefined) | 75 to 77
O=C(O)CCCNC(=O)c1ccccc1SSc1ccccc1C(=O)NCCCC(=O)O | 165 to 166
O=C(Nc1ccc2c(c1)CSCC2)OCc1ccccc1 | 109 to 111
Nc1snc2nc(N3CCCC3)sc12 | 262 to 264
Cc1ccccc1-c1cc(N2CCN(C(=O)CO)CC2)ncc1C(=O)N(C)Cc1cc(C(F)(F)F)cc(C(F)(F)F)c1 | 91 to 93
CS(=O)c1[nH]ccc1[N+](=O)[O-] (centres undefined) | 162 to 164
NCCc1c[nH]c2ccc(OCCCCc3ccccc3)cc12 | 130 to 132
CCCN1CCN(Cc2ccc3c(c2O)OCO3)CC1 | 115 to 117
COC(=O)C(OC)Oc1ccc(C2CCN(c3ccncc3)CC2)cc1 (centres undefined) | 127 to 129

SMILES | melting point [°C]
CCOC(=O)C(C)(C)OCc1oc(-c2ccc(Cl)cc2)nc1C | 75 to 76
CC(C)c1n[nH]c2c(NCc3ccccc3Br)ncnc12 | 194 to 196
N#CC1CN1C(=O)NS(=O)(=O)c1ccccc1 (centres undefined) | 103 to 108
CC(C(=O)O)c1ccc2cc(OCc3nc4ccccc4s3)ccc2c1 (centres undefined) | 169 to 171
Cc1cc(F)cc(-c2ccc3c(c2)C2(CCCCC2)C(=O)N3)c1 | 180 to 182
CCCCCCOC(=O)C(O)C1OC(n2cnc3c(N)ncnc32)C(O)C1O (centres undefined) | 145 to 147
COc1ccc(S(=O)(=O)Nc2ccc(Cl)c(OCCN(C)C)c2)cc1OC | 103 to 106
FC(F)(F)c1ccc(OCCCc2cn(C(c3ccccc3)(c3ccccc3)c3ccccc3)cn2)cc1 | 150 to 151
CCn1nnnc1C(C=O)=C(c1ccc(F)cc1)c1ccc(F)cc1 | 144 to 145
CC(C)c1c(Cl)nc(NC=O)nc1Cl | 95 to 96
COc1cc2cnc(O)nc2cc1OC | 260 to 263
CC(CC(=O)O)c1ccc(-c2ccccc2)c(Cl)c1 (centres undefined) | 66 to 67
Cc1ccccc1-c1nc2ccc(O)cc2o1 | 134 to 138
CCCCCCN(CC(=O)O)CC(=O)O | 130 to 131
O=[N+]([O-])c1ccc(C2CCNCC2)cc1 | 90 to 92
CC(C)c1nc(-c2ccc(S(C)(=O)=O)cc2)c(-c2ccc(F)cc2)[nH]1 | 214 to 215
CS(=O)(=O)On1nnc2ccccc21 | 88 to 90
CCCCCCNc1ccc(N=O)cc1 | 46 to 48
CCCN(CCC)C(=O)COc1nc(-c2ccccc2)nc(C)c1Br | 107 to 108
CC(C)(C)c1ncc(C(C(=O)O)C(C)(C)C)cn1 (single isomer, unassigned; (+)) | 222 to 224
COc1ccc(F)cc1C(C)(C)CC(O)(CN1CC(=O)N(C)c2ccccc21)C(F)(F)F (centres undefined) | 132 to 134
COc1ccc(NC(=NC#N)N2CCn3c(c(C(N)=O)c(Cl)c3-c3ccccc3)C2)cc1 | 170
COc1cc2ncnc(N3c4ccccc4CC3C)c2cc1OC (centres undefined) | 154 to 156
NCC1Cc2cc(-c3cccc(C(F)(F)F)c3)cc(F)c2O1 (centres undefined) | > 250
CCCN(CCC)CCCCNC(=O)c1cnc2cc(I)ccc2n1 | 74 to 76
O=c1ccc(-c2cccc(-c3ccc(=O)[nH]n3)c2)n[nH]1 | > 250
